The text below walks through data of patent publication EP0224249A1, “Amorphous benzimidazole derivatives” (SYNTEX (U.S.A.) INC., priority 1985, dated 1987).

For series [1], the system named is Nematodirus spp. Nature of the series: Anthelmintic efficacy in sheep carrying oxfendazole-resistant nematodes. Type of series: in vivo. As for the experimental part: (§1) Animals are then subjected to necropsy on day 6 post-treatment. Gastrointestinal tract, lungs, and liver are examined using standard parasitological techniques for nematode and trematode parasites.
(§2) (B) Sheep carrying nematodes with varying degrees of resistance to oxfendazole were treated with either levamisole, oxfendazole, or amorphous oxfendazole in accordance with the above procedure.
(§3) • Ost = Ostertagia spp. • Tri = Trichostrongylus spp. • Nem = Nematodirus spp. • Oes = Oesophagostomum spp. • Tr.o = Trichuris ovis

For series [2], the system named is Oesophagostomum spp. Described as above. Type of series: in vivo. As for the experimental part:
as §1, §2, §3

The subject of series [3] is Ostertagia spp. Described as above. Type of series: in vivo. As for the experimental part: as §1, §2, §3
The subject of series [4] is Trichostrongylus spp. Described as above. In kind it is in vivo. As for the experimental part:
as §1, §2, §3

Series [5] concerns Trichuris ovis. The series is described as above. Type of series: in vivo. The protocol:
as §1, §2, §3

Series [6] is described as follows: Dissolution rate at pH 2. In kind it is physicochemical. The source says: The dissolution rate of amorphous fenbendazole versus crystalline fenbendazole at pH 2 was studied as a model for showing the bioavailability of the amorphous compound.
The test system of series [7] is Ostertagia spp. Nature of the series: Anthelmintic efficacy in naturally infected goats, necropsy on day 6 post-treatment. In kind it is in vivo. The following applies: necropsy day 6 post-treatment. As for the experimental part:
(§4) (A) Fifteen (15) goats, preferably from a single source, known to be infected with nematode parasites as evidenced by positive fecal egg counts are used. The animals would be preferably of one sex. They will have been to be contaminated with goat parasite eggs and larvae, particularly Ostertagia spp. (hereinafter "Ost") and Trichostrongylus spp. (hereinafter "Tri") • 1. - Control • 2. - 9 mg amorphous oxfendazole/kg • 3. - 15 mg oxfendazole/kg Animals are then subjected to necropsy on day 6 post-treatment. Gastrointestinal tract, lungs, and liver are examined using standard parasitological techniques for nematode and trematode parasites.

The subject of series [8] is Trichostrongylus spp. The series is described as above. Type of series: in vivo. The following applies: necropsy day 6 post-treatment. As for the experimental part:
as §4

In series [9] the test system is nematode parasites. Nature of the series: Overall comparison of the goat and sheep efficacy studies. Type of series: in vivo. As to conditions: goat and sheep studies together.
Source text: (A) Fifteen (15) goats, preferably from a single source, known to be infected with nematode parasites as evidenced by positive fecal egg counts are used. The animals would be preferably of one sex. They will have been to be contaminated with goat parasite eggs and larvae, particularly Ostertagia spp. (hereinafter "Ost") and Trichostrongylus spp. (hereinafter "Tri")
as §1, §2

Series [10] is described as follows: Blood plasma levels after oral administration to dogs. Type of series: in vivo. As to conditions: 10 mg/kg; for Area Under the Curve / Area Under the Curve, mean (n = 6): plasma concentration vs time, 18720 min. As for the experimental part: Dogs were administered orally either amorphous or crystalline oxfendazole at a dose of 10 mg/kg.
Blood samples were drawn and analyzed before administration and on days 1, 2, 3, 7, 10, and 13 following administration. The area under the curve was calculated for plasma concentration vs time profile.

For series [11] the following is noted: administered to humans; cited from earlier work.

As to `c1ccc([C@H]2CN3CCSC3=N2)cc1` [Levamisole], in [1] (8 mg/kg), the “Percent Efficacy Nem” value was found to be 100%. Also, the “Percent Efficacy Oes” value in [2] (8 mg/kg) worked out at 100%. Besides, the “Percent Efficacy Ost” value in [3] (8 mg/kg) came out at 98%. For the same compound, in series [4] (8 mg/kg), the “Percent Efficacy Tri” value is recorded as 49%. Besides, in series [5] (8 mg/kg), the “Percent Efficacy Tr. o” value is 37%.

For the compound `COC(=O)Nc1nc2ccc(Sc3ccccc3)cc2[nH]1` [amorphous fenbendazole, methyl 5-(phenylthio)-lH-benzimidazol-2-yl carbamate], the “% Dissolved” value in [6] (pH 2, 5 min) is reported as 73%; in series [6] (pH 2, 15 min) it was 91%; in [6] (pH 2, 30 min), 125%; in series [6] (pH 2, 60 min), 130%; in [6] (pH 2, 90 min), 112%. Besides, in series [6] (pH 2, over time), the “solubility compared with crystalline fenbendazole” value is “more soluble than crystalline fenbendazole and remains more soluble over time”.

As for `COC(=O)Nc1nc2ccc([S+]([O-])c3ccccc3)cc2[nH]1` (stereo not drawn) [amorphous oxfendazole, methyl 5-(phenylsulfinyl)-lH-benzimidazol-2-yl carbamate], the results for the “Percent Efficacy Ost” value in series [7] (9 mg/kg), in series [3] (3 mg/kg) and in series [3] (6 mg/kg) were 70%, 55% and 22%, respectively. The “Percent Efficacy Tri” value in series [8] (9 mg/kg) amounted to 98%; in series [4] (3 mg/kg), 100%; in series [4] (6 mg/kg), 100%. For the same compound, the entries for the “Percent Efficacy Nem” value in [1] (3 mg/kg) and in [1] (6 mg/kg) were 57% and 82%, respectively. The “Percent Efficacy Oes” value in series [2] (3 mg/kg) and in series [2] (6 mg/kg) was 100% each time. The entries for the “Percent Efficacy Tr. o” value in series [5] (3 mg/kg) and in series [5] (6 mg/kg) were 9.5% and 69%, respectively. The “dose for approximately equivalent efficacy, relative to that required for oxfendazole” value in [9] is “about 60%”. Moreover, the “Area Under the Curve” value in series [10] (Dog No. A) is 20465.0 ng/ml hr; in series [10] (Dog No. B), 9717.5 ng/ml hr; in series [10] (Dog No. C), 11592.5 ng/ml hr; in series [10] (Dog No. D), 24245.0 ng/ml hr; in series [10] (Dog No. E), 12653.8 ng/ml hr; in series [10] (Dog No. F) it was 25475.0 ng/ml hr. In addition, in [10] (dogs), the “plasma level of oxfendazole compared with oxfendazole in commercially available form” value is “higher plasma level of oxfendazole”. In addition, in series [10] (dogs), the “Area Under the Curve, mean (n = 6)” value was determined as 17358.1 ng/ml hr.

Regarding `COC(=O)Nc1nc2cc(Sc3ccccc3)ccc2[nH]1` [crystalline fenbendazole, methyl 5-(phenylthio)-lH-benzimidazol-2-yl carbamate], the “% Dissolved” value was 21% in series [6] (pH 2, 5 min); 22% in [6] (pH 2, 15 min); 46% in series [6] (pH 2, 30 min); 41% in series [6] (pH 2, 60 min); 25% in series [6] (pH 2, 90 min).

Regarding `COC(=O)Nc1nc2ccc(C(=O)c3ccccc3)cc2[nH]1` [crystalline mebendazole, methyl 5-benzoyl-lH-benzimidazol-2-yl carbamate], the absorbed in [11] is on record as 3-4%.

On to `COC(=O)Nc1nc2ccc([S+]([O-])c3ccccc3)cc2[nH]1` (stereo not drawn) [oxfendazole, methyl 5-(phenylsulfinyl)-lH-benzimidazol-2-yl carbamate], for which the “Percent Efficacy Ost” value in [7] (15 mg/kg) is 77%; in [3] (5 mg/kg) it was 0%; in series [3] (10 mg/kg) it was 28%. In addition, the figures for the “Percent Efficacy Tri” value in [8] (15 mg/kg), in [4] (5 mg/kg) and in series [4] (10 mg/kg) were 80%, 100% and 99.7%, respectively. The “Percent Efficacy Nem” value in [1] (5 mg/kg) was determined as 22%; in series [1] (10 mg/kg), 80%. Also, the “Percent Efficacy Oes” value in [2] (5 mg/kg) and in series [2] (10 mg/kg) was 100% in each case. Also, the “Percent Efficacy Tr. o” value in series [5] (5 mg/kg) worked out at 38%; in series [5] (10 mg/kg), 62%. The “Area Under the Curve” value in series [10] (Dog No. A, listed as Crystalline Ox.) stood at 2700.0 ng/ml hr; in series [10] (Dog No. B, listed as Crystalline Ox.), 2622.0 ng/ml hr; in series [10] (Dog No. C, listed as Crystalline Ox.), 2130.0 ng/ml hr; in series [10] (Dog No. D, listed as Crystalline Ox.), 3341.0 ng/ml hr; in series [10] (Dog No. E, listed as Crystalline Ox.) it was 3107.5 ng/ml hr; in series [10] (Dog No. F, listed as Crystalline Ox.), 4149.5 ng/ml hr. For the same compound, the “Area Under the Curve, mean (n = 6)” value in series [10] (dogs, listed as Crystalline Ox.) came out at 3008.4 ng/ml hr.
